# Assay results: paper PMC5028780, “Receptor and transporter binding and activity profiles of albiflorin extracted from Radix paeoniae Alba” (Scientific Reports, 2016)
# Key:
# H3 = H3 (Homo sapiens, UniProt Q9Y5N1); test: CNS receptor binding, histamine H3; settings: CHO cell line, [3H]-hestamine(1)
# Experimental: (§1) Albiflorin (10 μM) was tested for numerous other potential binding targets by using standard receptor binding procedures. The tested targets included the following receptors: D1, D2, D3, D4, D5, 5-HT1A, 5-HT1B, 5-HT1D, 5-HT2a, 5-HT2C, 5-HT3, 5-HT5A, 5-HT6, 5-HT7, α1A, α1B, α2A, β1, M1, M2, M3, M4, M5, μ, κ, δ, A1, A2A, H1, H2, H3, H4.
# D2 = target: T1, D2 (Homo sapiens, UniProt P14416); test: CNS receptor binding, dopamine D2; settings: HEK293 cell line, [3H]-spiperone(1)
# T1 construct: expressed in transfected cells; host or cells: HEK293 cell line
# T1 sequence (P14416 whole entry): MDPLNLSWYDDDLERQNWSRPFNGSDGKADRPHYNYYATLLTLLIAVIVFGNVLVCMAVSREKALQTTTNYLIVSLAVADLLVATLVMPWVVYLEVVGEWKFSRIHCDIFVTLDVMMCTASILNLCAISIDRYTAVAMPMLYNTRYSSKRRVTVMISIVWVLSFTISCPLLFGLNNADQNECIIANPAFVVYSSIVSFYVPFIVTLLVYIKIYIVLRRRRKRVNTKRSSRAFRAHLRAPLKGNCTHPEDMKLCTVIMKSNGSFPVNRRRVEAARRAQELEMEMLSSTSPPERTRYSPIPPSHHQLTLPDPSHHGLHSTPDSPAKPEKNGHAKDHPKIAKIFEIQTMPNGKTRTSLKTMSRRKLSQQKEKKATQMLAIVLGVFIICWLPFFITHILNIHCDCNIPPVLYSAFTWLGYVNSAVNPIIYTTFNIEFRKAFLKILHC
# Experimental: as §1
# κ = κ (Homo sapiens, UniProt P41145); test: CNS receptor binding, opioid κ; settings: CHO cell line, [3H]-dipnorphine(1)
# Sequence of κ (P41145 whole entry): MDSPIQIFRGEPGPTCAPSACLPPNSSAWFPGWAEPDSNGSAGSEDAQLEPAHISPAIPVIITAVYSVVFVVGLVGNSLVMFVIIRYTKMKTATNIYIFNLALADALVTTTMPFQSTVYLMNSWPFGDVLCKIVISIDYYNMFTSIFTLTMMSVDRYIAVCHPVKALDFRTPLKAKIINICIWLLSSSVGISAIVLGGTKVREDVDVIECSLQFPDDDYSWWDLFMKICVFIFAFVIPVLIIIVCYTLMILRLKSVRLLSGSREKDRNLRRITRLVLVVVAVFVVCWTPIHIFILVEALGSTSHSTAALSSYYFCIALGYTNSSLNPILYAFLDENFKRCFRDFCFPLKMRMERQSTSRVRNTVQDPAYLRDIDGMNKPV
# Experimental: as §1
# duration of immobility = tested on: duration of immobility; design: method as in PMID 26719283; settings: mice; short- and long-term administration; cited from earlier work
# M3 = M3 (Homo sapiens, UniProt P20309); test: CNS receptor binding, muscarinic M3; settings: CHO cell line, [3H]-NMS(1)
# Sequence of M3 (P20309 whole entry): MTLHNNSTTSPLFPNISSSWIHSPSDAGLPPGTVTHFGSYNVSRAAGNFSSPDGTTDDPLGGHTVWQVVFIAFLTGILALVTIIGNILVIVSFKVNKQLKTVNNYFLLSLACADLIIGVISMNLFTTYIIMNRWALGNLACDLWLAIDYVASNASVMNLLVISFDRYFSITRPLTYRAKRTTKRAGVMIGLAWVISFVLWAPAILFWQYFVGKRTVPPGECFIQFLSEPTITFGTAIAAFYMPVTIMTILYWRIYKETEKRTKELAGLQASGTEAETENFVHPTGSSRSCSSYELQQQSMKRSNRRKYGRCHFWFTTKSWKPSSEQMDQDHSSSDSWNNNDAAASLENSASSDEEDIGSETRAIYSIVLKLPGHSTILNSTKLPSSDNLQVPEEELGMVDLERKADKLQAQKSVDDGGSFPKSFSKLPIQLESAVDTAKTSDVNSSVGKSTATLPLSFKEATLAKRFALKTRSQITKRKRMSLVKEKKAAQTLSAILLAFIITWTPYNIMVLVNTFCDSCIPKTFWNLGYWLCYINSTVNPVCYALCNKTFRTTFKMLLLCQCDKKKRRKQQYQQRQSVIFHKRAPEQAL
# Experimental: as §1
# hNET = target: T2, hNET (Homo sapiens, UniProt P23975); test: Human monoamine transporter binding assay, NET
# T2 construct: expressed in transfected cells
# T2 sequence (P23975 whole entry): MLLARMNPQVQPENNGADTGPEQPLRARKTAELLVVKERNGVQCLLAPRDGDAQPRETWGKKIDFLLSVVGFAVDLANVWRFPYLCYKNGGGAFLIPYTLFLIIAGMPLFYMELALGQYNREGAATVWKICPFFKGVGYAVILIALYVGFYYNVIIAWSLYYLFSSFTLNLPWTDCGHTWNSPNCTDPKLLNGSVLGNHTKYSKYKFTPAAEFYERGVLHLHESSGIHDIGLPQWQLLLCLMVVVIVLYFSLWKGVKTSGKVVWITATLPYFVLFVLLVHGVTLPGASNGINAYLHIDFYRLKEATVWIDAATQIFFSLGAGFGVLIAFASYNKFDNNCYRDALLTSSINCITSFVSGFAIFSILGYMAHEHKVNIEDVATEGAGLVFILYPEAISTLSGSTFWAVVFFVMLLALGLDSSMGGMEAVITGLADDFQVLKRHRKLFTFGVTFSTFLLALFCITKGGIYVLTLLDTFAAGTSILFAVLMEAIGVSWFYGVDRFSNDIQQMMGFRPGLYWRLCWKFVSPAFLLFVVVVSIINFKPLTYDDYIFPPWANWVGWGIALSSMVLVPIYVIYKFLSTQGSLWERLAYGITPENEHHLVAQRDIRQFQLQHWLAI
# Experimental: Membranes were prepared from HEK293 cells stably expressing hSERT, hNET, or hDAT as described previously. Briefly, [^3H]-citalopram (1 nM), [^3H]-nisoxetine (2 nM), or [^3H]-WIN35,428 (2 nM) was used to label human 5-HT, NE, or DA transporters, respectively.
# (§2) All data for inhibition curves were analysed by nonlinear regression using Prism software (GraphPad Software Inc., San Diego, CA) to determine IC50 values. For the microdialysis experiments, two-way repeated-measures ANOVA followed by Tukey’s test was used to compare the percentage increase over baseline between groups, time and treatment as independent factors, and time as the repeated factor.
# rat SERT = target: T3, rat SERT (Rattus norvegicus, UniProt P31652); test: Rat monoamine transporter binding assay, SERT; settings: [3H]-citalopram, Cerebral cortex
# T3 construct: from tissue; host or cells: Sprague-Dawley rat cerebral cortex membranes
# T3 sequence (P31652 whole entry): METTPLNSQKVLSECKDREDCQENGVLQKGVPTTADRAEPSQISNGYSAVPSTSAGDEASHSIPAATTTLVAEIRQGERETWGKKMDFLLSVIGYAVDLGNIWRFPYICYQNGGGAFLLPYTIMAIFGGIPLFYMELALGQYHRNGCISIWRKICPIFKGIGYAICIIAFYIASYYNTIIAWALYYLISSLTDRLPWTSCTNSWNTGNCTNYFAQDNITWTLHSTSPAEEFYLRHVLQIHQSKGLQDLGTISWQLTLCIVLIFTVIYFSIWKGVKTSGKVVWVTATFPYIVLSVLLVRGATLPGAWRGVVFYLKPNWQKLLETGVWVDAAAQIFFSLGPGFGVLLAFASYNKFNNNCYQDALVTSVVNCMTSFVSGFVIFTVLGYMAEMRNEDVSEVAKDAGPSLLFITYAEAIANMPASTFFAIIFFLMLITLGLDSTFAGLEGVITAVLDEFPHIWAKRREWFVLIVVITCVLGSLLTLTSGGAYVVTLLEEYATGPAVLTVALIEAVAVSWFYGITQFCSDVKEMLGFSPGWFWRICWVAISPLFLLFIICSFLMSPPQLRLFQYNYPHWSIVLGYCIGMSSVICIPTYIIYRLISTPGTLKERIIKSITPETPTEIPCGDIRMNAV
# Experimental: Male Sprague–Dawley rats were killed by cervical dislocation, and their brains were rapidly removed and then dissected on ice. The cerebral cortex, hypothalamus and striatum were homogenised in 4 mL of assay buffer (50 mM Tris–HCl buffer, pH 7.4.) and centrifuged at 40,000× g for 10 min at 4 °C. The pellets were centrifuged twice at 20,000× g and then resuspended in 4 mL of assay buffer. […] Bio-Rad protein assay reagents (1:5 ratio) were used to analyse the protein concentration of the synaptosomal suspension.
# as §2
# [1] = read-out: IC50 values for albiflorin
# Sequence of H3 (Q9Y5N1 whole entry): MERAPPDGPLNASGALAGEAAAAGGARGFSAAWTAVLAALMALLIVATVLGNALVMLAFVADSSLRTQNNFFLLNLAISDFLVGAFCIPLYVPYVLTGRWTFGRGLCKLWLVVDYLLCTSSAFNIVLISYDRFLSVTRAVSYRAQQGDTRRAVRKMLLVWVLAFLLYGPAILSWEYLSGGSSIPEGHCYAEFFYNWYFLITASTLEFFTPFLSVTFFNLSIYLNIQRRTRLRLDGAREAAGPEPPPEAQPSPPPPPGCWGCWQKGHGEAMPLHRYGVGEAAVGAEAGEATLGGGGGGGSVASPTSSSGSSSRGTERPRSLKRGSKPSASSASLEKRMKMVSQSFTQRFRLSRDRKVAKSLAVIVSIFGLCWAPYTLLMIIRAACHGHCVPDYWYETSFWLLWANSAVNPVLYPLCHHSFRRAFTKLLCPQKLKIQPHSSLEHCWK
smiles,measurement,setting,value
"C[C@]12C[C@@H](O)[C@@H]3C[C@@]1(O[C@@H]1O[C@H](CO)[C@@H](O)[C@H](O)[C@H]1O)[C@@]3(COC(=O)c1ccccc1)C(=O)O2 [albiflorin, Albiflorin]",% Inhibition of binding at 10 μM albiflorin,H3,12.33%
same,IC50,H3; [1],> 10 µM
same,% Inhibition of binding at 10 μM albiflorin,D2,12.50%
same,IC50,D2; [1],> 10 µM
same,% Inhibition of binding at 10 μM albiflorin,κ,32.33%
same,IC50,κ; [1],> 10 µM
same,"antidepressant-like effect, forced-swim test",duration of immobility,decreases in the duration of immobility
same,% Inhibition of binding at 10 μM albiflorin,M3,25.66%
same,IC50,M3; [1],> 10 µM
same,Ki,"hNET; Human, [3H]-nisoxetine, HEK293 cell line",0.00123 ± 7e-05 µM
same,affinity relative to desipramine in hNET binding assay,hNET; albiflorin vs desipramine,4 fold
same,Ki,rat SERT,0.00525 ± 0.00017 µM
